Patent publication US6586460B1, “Heteroarotinoids containing urea or thiourea linker” (The Board of Regents for Oklahoma State University, priority 2001, dated 2003)

Key:
CAOV-3 = assay: Growth inhibition assay (SRB); format: cell-based
From the text: (§1) To illustrate the general and useful biological activity of the heteroarotinoids described in this invention, selected compounds were screened for ability to inhibit the growth of three ovarian cancerous cell lines, namely Caov, SKOV, and OVCAR cell lines, three cervical cell lines (Cervix HPV-Wt p53, Cervix HPV-Mut p53, and Cervix HPV-Mut p53), and one vulvar (Vulvar HPV-Mut p53) cell line as shown in Tables I-III. The cell lines and the technology have been previously described [See Journal of Medicinal Chemistry, 1999, Vol. 42, pages 3602-3614 in an article entitled “Synthesis, Structure-Activity Relationships, and RAR γ-Ligand Interactions of Nitrogen Heteroarotinoids” by A. Dhar, S. Liu, J. Klucik, K. D. Berlin, M. M. Madler, S. Lu, R. T. Ivey, D. Zacheis, C. W. Brown, E. C. Nelson, P. J. Birckbichler, and D. M. Benbrook], but the general technique was slightly modified. Cultures of the cancerous cells were plated in volumes of 150 μL in 96-well microtiter plates at concentrations of 2000-4000 cells/well, depending upon the cell line used. Retinoids were added the next day at 4× the concentrations in 50 μL of media resulting in 1, 2, 3, 4, 5, 7, and 10 μM final concentrations of each retinoid. Control cultures were treated with the same volume of DMSO. After 3 days of treatment, the cell density in each well was determined by fixing the cells in trichloroacetic acid followed by staining the cytoplasmic proteins with sulforhoamine B (SRB). After rinsing, the SRB was solubilized in Tris-HCl, and the optical density of each culture was determined with a MR600 microtiter plate reader. Each experiment was performed in triplicate, and the three values of each treatment were averaged. The average OD of the treated cultures was divided by that of the control cultures treated with solvent alone. To determine the percent growth inhibition, this ratio was subtracted from 1 and multiplied by 100. Tables I, II, and III contain representative examples of the inhibition of growth by the inventive heteroarotinoids of the cancerous cell lines investigated at two independent concentrations (1 and 10 μM). As standards for comparison purposes, trans-retinoic acid (t-RA), 9-cis-retinoic acid (9-c-RA), 13-cis-retinoic acid (13-c-RA), and […] (4-HPR) were added in parallel experiments along with the heteroarotinoids and with dimethyl sulfoxide (DMSO) as the solvent. For convenience, the data in Tables II and III are duplicated and ranked according to tumor type.

SK-OV-3 = assay: Growth inhibition assay (SRB); format: cell-based
From the text: as §1

OVCAR-3 = assay: Growth inhibition assay (SRB); format: cell-based, human
From the text: as §1

[1] = test system: OVCAR-3 cisplatin-resistant ovarian carcinoma cell line; assay: Cisplatin chemosensitization (MTS assay); format: cell-based, human; conditions: for chemosensitization to cisplatin (percent growth, FIG. 2): 1 μM retinoid 3 days before and 3 days after one hour of cisplatin (40 μM or 1 μg/ml)
Description: The compounds of the present invention also find advantage over the standard retinoids, including retinoic acid and 4-HPR as chemosensitization agents. In another study, ovarian carcinoma cultures, including cisplatin-resistant cultures, were trypsinized and plated in microtiter plates at a concentration of 1000 cells per well. A series of natural and synthetic retinoids, including exemplar heteroarotinoids with the novel three atom linker, at a concentration of 5 μM were added to triplicate wells in the microtiter plates twenty-four hours later. The same volume of DMSO used to administer the compounds were added to the control cultures. After three days of treatment, a range of cisplatin concentrations were added to the wells. After one hours of exposure, the media and retinoid drugs were replenished. Cell survival was quantitated using the MTS assay (Promega). […] Thus, the present invention contemplates the process of sensitizing cells to cisplatin therapy and combined cisplatin and radiation therapy using the inventive heteroarotinoids.
In this regard, the cisplatin resistant OVCAR-3 cell line was pre-treated with a concentration of 1 μM of the indicated retinoids for 3 days, and then exposed to cisplatin at the concentration detected in tumors of treated patients (40 μM or 1 μg/ml). […] After one hour of cisplatin exposure, the cisplatin was removed and the cultures were grown in the presence of 1 μM of the indicated retinoids for an additional 3 days. The number of living cells present was then determined using the MTS (3-(4,5-dimethylthiazol-2-yl)-5-(3-carboxymethoxyphenyl)-2H-tetrazolium inner salt) assay (Promega). In the MTS assay, metabolically active cells reduce the MTS compound to an aqueous soluble formazan resulting in an absorbance that can be measured at 490 nm (Promega Technical Bulletin No.169). The optical density at 490 nm (OD490) of the MTS-treated cultures is then determined and used as a measure of the number of living cells in each well. The percent growth is determined by dividing the OD490 of the treated cultures by the OD490 of the untreated control cultures.

[2] = test system: SW962 vulvar carcinoma cultures; assay: Apoptosis assay, Annexin-V-Flous/propidium iodide flow cytometry; format: cell-based
From the text: Optimal chemotherapeutic agents will selectively kill tumor cells by inducing a natural form of cell death which is called “apoptosis”. Toxic agents kill both normal and tumor cells via a nonspecific process known as “necrosis”. To differentiate between apoptosis and necrosis in heteroarotinoid-treated cultures, a flow cytometric assay was employed. Treated cultures were stained with Annexin-V-Flous and propidium iodide, and the intensities of the stains are quantitated with Flow Cytometry. The Annexin-V-Flous binds to phosphatidyl serine on the exterior of apoptosing cells. This assay is specific for apoptosing cells because phosphatidyl serine is normally located on the inner membrane of the cells, a situation whereby the serine derivative cannot be bound by Annexin. However, during apoptosis, phosphatidyl serine is translocated to the outer membrane. The Flous moiety emits a signal that can be detected and quantitated by Flow Cytometry. In contrast, propidium iodide is taken up by necrotic cells that have lost membrane integrity. In this study, t-RA was used as a control for the non-apoptotic retinoids, and 4-HPR was used as a control for the apoptotic retinoids.

[3] = test system: ovarian carcinoma cell line OVCAR-3; assay: Apoptosis in organotypic culture, TUNNEL assay; format: cell-based, human; conditions: 1 μM, two weeks, organotypic culture, TUNNEL assay
Description: In another experiment, the ovarian carcinoma cell line OVCAR-3 was grown in organotypic culture. After one week, the cultures were treated with 1 μM solution of heteroarotinoids 11, 12, and 13, or with the same volume of DMSO (solvent), for two weeks. Both 9-c-RA and 4-HPR were used as controls. At the end of the time, the cultures were fixed in sectioned, and stained with the TUNNEL assay to detect apoptosing cells. An experienced pathologist quantitated the percent of apoptosing cells by light microscopic examination.

[4] = Liver toxicity (plasma ALT activity, liver sections); format: in vivo; conditions: 10 mg/kg/day p.o.
From the text: Toxic compounds can induce livers to release enzymes called serum transaminases, such as alanine aminotransferase (ALT). The assay for ALT is the most universally accepted clinical laboratory marker used to evaluate hepatic toxicity induced by pharmaceuticals [See “Serum Transferase Elevations as Indicators or Hepatic Injury Following the Administration of Drugs”, Reg. Tox. Pharm., volume 27, 1998, pp 119-130, by D. E. Amacher]. At the end of the treatment period, blood was drawn from each animal. Plasma was separated by centrifugation and stored at −70° C. The activity of ALT was determined in aliquots of plasma by standard spectrophotometric enzymatic techniques which were based upon the reduction of pyruvate by lactate dehydrogenase [See “Aged Mice are Resistant to the Hepatotoxic Effects of Endotoxin and Galactosamine” in Exp. Mol. Pathology, volume 59, 1993, pp 27-37]. The method measures the disappearance of NADH from time of incubation at 37° C. The activities have been expressed in μm/Liter/min (Table VI). Two different amounts of plasma were utilized in each assay to assure the measurement of the maximum rate.
There were no statistically significant differences between the ALT activities in the different treatment groups (Table VI, t-test: P>0.05). All numbers were in the normal range (63 to 307 μm/Liter/Min) of ALT values for the species of mouse utilized. All liver sections were assessed by an experienced pathologist in a blinded manner. The degree of necrosis was very mild in all animals.

C-33A = assay: Growth inhibition assay (SRB); format: cell-based; conditions: 10 μM, three-day treatment, Table I
From the text: as §1

HT-3 = assay: Growth inhibition assay (SRB); format: cell-based; conditions: 10 μM, three-day treatment, Table I
From the text: as §1

SW962 = assay: Growth inhibition assay (SRB); format: cell-based; conditions: 10 μM, three-day treatment, Table I
From the text: as §1

SiHa = assay: Growth inhibition assay (SRB); format: cell-based; conditions: 10 μM, three-day treatment, Table I
From the text: as §1

[5] = 1 μM, 3 days of treatment, Table II
[6] = 10 μM, 3 days of treatment, Table III
[7] = 10 μM, three-day treatment, Table I

Molecule | Percentage of growth inhibition, CAOV−3 (CAOV-3; [5]) [%] | Percentage of growth inhibition, CAOV−3 (CAOV-3; [6]) [%] | Percentage of growth inhibition, SKOV−3 (SK-OV-3; [5]) [%] | Percentage of growth inhibition, SKOV−3 (SK-OV-3; [6]) [%] | Percentage of growth inhibition, OVCAR−3 (OVCAR-3; [5]) [%] | Percentage of growth inhibition, OVCAR−3 (OVCAR-3; [6]) [%] | chemosensitization to cisplatin (percent growth, FIG. 2) [1] | % APOPTOSIS of OVCAR-3 cells [3] [%] | other results
CCOC(=O)c1ccc(NC(=O)Nc2cccc3c2SC(C)(C)CC3(C)C)cc1 [heteroarotinoid 24] | 17.55 | 53.11 | 1.86 | 7.98 | −2.16 | 26.53 | effective |  | 
Cc1cc([N+](=O)[O-])ccc1NC(=S)Nc1ccc2c(c1)C(C)(C)CC(C)(C)S2 [heteroarotinoid 16] | 15.33 | 83.22 | −1.67 | 52.81 | 10.20 | 74.05 | effective |  | 
CC1=C(/C=C/C(C)=C/C=C/C(C)=C/C(=O)Nc2ccc(O)cc2)C(C)(C)CCC1 [4-HPR, 4-hydroxyphenylretinamide, reference compound] |  |  | 7.2 | 64.9 | 2.7 | 43.1 | but not 4-HPR are effective | 95 | Percentage of induction of apoptosis in SW962 vulvar carcinoma cultures ([2]; Days 0): 3%; Percentage of induction of apoptosis in SW962 vulvar carcinoma cultures ([2]; Days 1): 1.67%; Percentage of induction of apoptosis in SW962 vulvar carcinoma cultures ([2]; Days 2): 3.6%; Percentage of induction of apoptosis in SW962 vulvar carcinoma cultures ([2]; Days 3): 17.28%; liver toxicity (ALT activities, liver sections assessed by pathologist) ([4]; mice): do not appear to induce significant liver toxicity; ALT ACTIVITY ([4]; plasma of mice at end of treatment period): 149.7 ± 140.9 μm/Liter/Min; chemosensitization to cisplatin (cell survival, MTS) ([1]; 5 μM retinoid, three days, then range of cisplatin concentrations): prevented the growth increase
9-cis-retinoic acid [9-c-RA, reference compound] |  |  | 23.0 | 16.0 | 6.2 | 5.3 |  | 80 | Percentage growth inhibition, C-33A (Cervix HPV− Mut p53) (C-33A): 44%; Percentage growth inhibition, CAOV-3 (Ovarian HPV− Mut p53) (CAOV-3; [7]): 27%; Percentage growth inhibition, HT-3 (Cervix HPV− Mut p53) (HT-3): 47%; Percentage growth inhibition, SK-OV-3 (Ovarian HPV− Null p53) (SK-OV-3; [7]): 30%; Percentage growth inhibition, SW962 (Vulva HPV− Mut p53) (SW962): 31%; Percentage growth inhibition, SiHa (Cervix HPV+ Wt p53) (SiHa): 24%; Percentage growth inhibition, OVCAR-3 (Ovarian HPV− Mut p53) (OVCAR-3; [7]): 28%
COc1cc2c(cc1NC(=S)Nc1ccc([N+](=O)[O-])cc1)C(C)(C)OCC2(C)C [heteroarotinoid 31, [(6-Methoxy-1,1,4,4-tetramethylisochroman-7-yl)amino][(4-nitrophenyl)amino]methane 1-Thione] |  |  |  |  | 3.88 |  |  |  | inhibition at 1 µM (CAOV-3; Homo sapiens, Caov-3, 72 h, 1 μM, 3 days of treatment, Table II, read-out: Percentage of growth inhibition, CAOV−3): 6.88%; inhibition at 10 µM (CAOV-3; Homo sapiens, Caov-3, 72 h, 10 μM, 3 days of treatment, Table III, read-out: Percentage of growth inhibition, CAOV−3): 30.8%; inhibition at 1 µM (SK-OV-3; Homo sapiens, SK-OV-3, 72 h, 1 μM, 3 days of treatment, Table II, read-out: Percentage of growth inhibition, SKOV−3): -1.42%; inhibition at 10 µM (SK-OV-3; Homo sapiens, SK-OV-3, 72 h, 10 μM, 3 days of treatment, Table III, read-out: Percentage of growth inhibition, SKOV−3): 27.4%; inhibition at 1 µM (OVCAR-3; Homo sapiens, OVCAR-3, 72 h, 1 μM, 3 days of treatment, Table II, read-out: Percentage of growth inhibition, OVCAR−3): 3.83%; inhibition at 10 µM (OVCAR-3; Homo sapiens, OVCAR-3, 72 h, 10 μM, 3 days of treatment, Table III, read-out: Percentage of growth inhibition, OVCAR−3): 80.6%; melting point: 178 to 179 °C
